# Experimental data from publication PMC12873548, “D-amino acid substitution and cyclization enhance the stability and antimicrobial activity of arginine-rich peptides” (Microbiology, 2026).
# Residues, ends and D or L forms follow the SMILES beside them.
# Tests used:
# E. coli (25922) = assay type: cell-based, Escherichia coli
# Protocol: (§1) The MIC of arginine-based peptides was assessed using the microbroth dilution approach. Our in vitro screening included a panel of Gram-negative bacteria, Escherichia coli (ATCC 25922 and enterohaemorrhagic O157:H7) and Pseudomonas aeruginosa (PA01 and the drug-resistant strain NCTC 13437), and Gram-positive bacteria (Staphylococcus aureus ATCC 12600). Five-millilitre overnight cultures in Lysogeny broth, prepared from single isolated colonies, were diluted to 5×10^6 c.f.u. ml^−1 mid-log phase in Mueller–Hinton (MH) broth. Next, peptide concentrations (0 to 1 mM) were serially diluted twofold in 96-well plates and incubated overnight at 37 °C with the tested bacterial strains. In each case, the MIC was determined as the lowest peptide concentration at which no detectable bacterial growth was observed, employing an absorbance-based assay using a Tecan Spark® multimode plate reader. Subsequently, 10 µl aliquots from each peptide dilution were transferred to MH agar (1.5%) plates to determine the minimum bactericidal concentration (MBC) which was assessed by establishing at which concentration no visible growth of bacteria (assessed via colony formation) on the plate was observed.
# (§2) The antimicrobial activity and structural stability of arginine-rich peptides were evaluated in the presence of human serum (20% and 50 %) and 5 µM Sequencing Grade Modified Trypsin (SGMT, Promega). Briefly, fresh human blood was collected in EDTA tubes and allowed to clot at room temperature for 1 h. Serum was then collected following centrifugation at 2,000 r.p.m. for 10 min at 4 °C. Peptides were incubated with 20%, 50% human serum and 5 µM SGMT in 50 mM Tris-HCl buffer (1 mM CaCl₂, pH 7.6) for 24 h at 37 °C. After the incubation period, the solutions were further incubated with E. coli (ATCC 25922 and O157:H7), P. aeruginosa (PA01, NCTC13437) and S. aureus (ATCC12600), and the MIC was assessed as described in the ‘Antibacterial assessment’ section. Additionally, the samples were analysed using electrospray ionization MS to monitor structural changes based on the molecular weight of the peptides.
# S. aureus = assay: Intracellular ROS, DCFH-DA; assay type: cell-based, Staphylococcus aureus; conditions: peptides at MIC, 1/2× MIC, 1/4× MIC, 4 h, 37 °C
# Protocol: (§3) Total reactive oxygen species (ROS) was measured using an oxidation-sensitive fluorescent dye, 2′,7′-dichlorodihydrofluorescein diacetate (DCFH-DA). For this assay, E. coli and S. aureus cultures were adjusted to an OD600 of 0.3 in MH broth and exposed to peptides at MIC, 1/2× MIC and 1/4× MIC, or to positive control (5 mM H2O2) for 4 h at 37 °C. Cells were centrifuged at 4,000 r.p.m. for 10 min at 4 °C and resuspended in PBS containing 10 µM DCFH-DA. The suspension was incubated under the same conditions for 30 min. Finally, cells were washed twice with PBS, and 150 µl aliquots were transferred to 96-well plates. Oxidized DCF products were detected using a Tecan Spark® microplate reader with excitation at 485 nm and emission at 530 nm. Additionally, 10 µl of E. coli cells incubated with D-R4F4 at MIC, 1/2×MIC and 1/4×MIC was collected for imaging using an All-in-One Fluorescence Microscope (Keyence, Japan).
# E. coli ATCC 25922 = assay: Membrane integrity, PI uptake; assay type: cell-based, Escherichia coli; conditions: E. coli ATCC 25922, 5 µg ml−1 PI, 1 h
# Protocol: Propidium iodide (PI) uptake was used to assess the permeabilization of the bacterial membrane upon incubation with peptides. E. coli and S. aureus cells, adjusted to an OD600 of 0.5, were placed into a 96-well plate containing 5 mM HEPES buffer (pH 7.4, supplemented with 5 mM glucose) and incubated with 5 µg ml^−1 PI for 15 min. Afterwards, different peptide concentrations were added, and PI uptake was rapidly measured every 10 min over a 1 h period using a Tecan Spark® microplate reader (λex=515 nm, λem=620 nm).
# P. aeruginosa (PA01) [1] = assay type: cell-based, Pseudomonas aeruginosa; conditions: P. aeruginosa PA01
# Protocol: as §1
# [2] = test system: P. aeruginosa (NCTC13437); assay type: cell-based, Pseudomonas aeruginosa; conditions: P. aeruginosa NCTC13437 (drug-resistant); 10 µl aliquots plated on MH agar, no visible colonies
# Protocol: as §1
# S. aureus (12600) = assay type: cell-based, Staphylococcus aureus
# Protocol: as §1, §2
# E. coli = assay: Intracellular ROS, DCFH-DA; assay type: cell-based, Escherichia coli; conditions: peptides at MIC, 1/2× MIC, 1/4× MIC, 4 h, 37 °C
# Protocol: as §3
# P. aeruginosa (PA01) [3] = assay: Inhibition of biofilm formation, crystal violet; assay type: cell-based, Pseudomonas aeruginosa; conditions: P. aeruginosa PA01, M63 medium, peptides 0 to 500 µM, 24 h, 0.1% CV
# Protocol: Arginine-rich peptides were evaluated for their ability to inhibit biofilm formation of P. aeruginosa (PA01) cells. To assess this, the procedure described in the ‘Antibacterial assessment’ section for determining the MIC was adapted using M63 media (supplemented with 1 mM MgSO4 and 23 µM L-arginine). After 24 h of exposure to peptides (0 to 1 mM), flat-bottom 96-well plates were washed twice with PBS to remove any non-adherent cells. The remaining biofilm was stained with 0.1% crystal violet (CV) for 30 min at room temperature. Subsequently, the plates were washed three times to remove excess dye and left to dry overnight at room temperature. The following day, stained biofilms were solubilized using 30% glacial acetic acid, and absorbance was measured at 550 nm using a microplate reader. Biofilm inhibition was expressed as a percentage relative to control bacterial cells treated with PBS.
# [4] = control without serum or trypsin
# [5] = peptide incubated with 5 µM SGMT trypsin in 50 mM Tris-HCl, 1 mM CaCl2, pH 7.6, 24 h at 37 °C before MIC
# [6] = peptide incubated with 20% human serum 24 h at 37 °C before MIC
# [7] = peptide incubated with 50% human serum 24 h at 37 °C before MIC
structure (smiles),measurement,setting,value
N=C(N)NCCC[C@@H]1NC(=O)[C@H](CCCNC(=N)N)NC(=O)[C@H](CCCNC(=N)N)NC(=O)[C@H](Cc2ccccc2)NC(=O)[C@H](Cc2ccccc2)NC(=O)[C@H](Cc2ccccc2)NC(=O)[C@H](Cc2ccccc2)NC(=O)[C@H](CCCNC(=N)N)NC1=O [CP-R4F4] (cyclo(RRRRFFFF)),"MIC, Control",E. coli (25922); [4],31.25 µM
same,"MIC, Trypsin",E. coli (25922); [5],31.25 µM
same,"MIC, 20% human serum",E. coli (25922); [6],31.25 µM
same,"MIC, 50% human serum",E. coli (25922); [7],125 µM
same,Intracellular ROS levels,S. aureus,highest modulation of ROS levels
same,"PI uptake, membrane integrity",E. coli ATCC 25922,membrane-disruptive activity
same,MBC,"P. aeruginosa (PA01) [1]; 10 µl aliquots plated on MH agar, no visible colonies",31.2 µM
same,MIC,"P. aeruginosa (PA01) [1]; MH broth, 5×10^6 cells, 24 h, 37 °C, absorbance 600 nm, triplicate",31.2 µM
same,MBC,[2],250 µM
same,"MIC, Control",S. aureus (12600); [4],62.5 µM
same,"MIC, Trypsin",S. aureus (12600); [5],62.5 µM
same,"MIC, 20% human serum",S. aureus (12600); [6],62.5 µM
same,"MIC, 50% human serum",S. aureus (12600); [7],250 µM
same,Intracellular ROS levels,E. coli,highest modulation of ROS levels
same,"Biofilm formation (biomass, crystal violet)",P. aeruginosa (PA01) [3],lowest levels of biofilm formation at the lower concentrations
